Assay results as given in PMC11946258, “Self-Assembly, Antimicrobial Properties and Biodegradability of Ester-Functionalized Choline-Based Surface-Active Ionic Liquids” (Molecules, 2025).

Key:
MRSA biofilms = format: cell-based, methicillin-resistant Staphylococcus aureus; details: MRSA biofilm, MTT
Protocol: The biocidal activity of the ester-functionalized choline-based ILs on bacterial and fungal cells in biofilms was assessed by MTT cell viability assays. CnECholBr were evaluated for their potential to kill cells in pre-established biofilms of MRSA and C. albicans, two clinically relevant pathogens. Pre-formed biofilms on 48-wells plates were treated with increasing concentrations of the ester-functionalized choline-based ILs and the cell viability of the sessile cells was quantified by the MTT method. The results obtained for MRSA and C. albicans biofilms are shown in Figure 6a and Figure 6b, respectively.
Antibiofilm activity was assessed against biofilm-forming strains of methicillin-resistant Staphylococcus aureus (MRSA) ATCC 43300 and Candida albicans ATCC 90028. The biofilm inhibition and eradication capacities of ILs were evaluated against adherent bacterial biofilms grown in 96-well microtiter plates. Bacteria were grown on Tryptic soy agar at 37 °C for 24 h and the fungi on Sabouraud agar at 30 °C for 24 h. Bacteria were suspended in lysogeny broth containing glucose (1%) at 1.5 × 10^8 CFU/mL and yeasts were suspended in RPMI medium at 1.5 × 10^7 CFU/mL.
For mature biofilm formation, 200 μL of the bacterial or fungal suspension was added to each well in a 48-well microplate, and incubated for 24 h at 37 °C for bacteria and 30 °C for yeast. The wells were then washed three times with PBS and 200 µL of each test solution with different concentrations of surfactants prepared in MHB (for bacteria) or RPMI medium (for yeasts) was added to each well containing the preformed biofilm. The plates were incubated for 24 h at 30 °C. The medium was removed and the wells were then washed twice with PBS. MTT solution (200 μL) was added to each well and the plate was incubated for 4 h. The MTT was then removed and 200 μL of DMSO was added to solubilize […]. The OD value was recorded at 540 nm. Controls were performed with non-ionic liquids. Each assay was run four times and the results were averaged.

MRSA = experiment: MIC broth microdilution; format: cell-based, methicillin-resistant Staphylococcus aureus; details: Staphylococcus aureus, ATCC 43300 / MRSA; MRSA ATCC 43300, 24 h, 37 °C
Protocol: The antimicrobial activity of cholinium-based ILs with an ester group in the alkyl chain was evaluated against a range of representative bacteria and fungi.
Antibacterial assays were performed against the following microorganisms: Bacillus subtilis ATCC 6633, Staphylococcus epidermidis ATCC 12228, Staphylococcus aureus ATCC 29213, Micrococcus luteus ATCC10240, Listeria monocytogenes ATCC 15313, methicillin-resistant Staphylococcus aureus ATCC 43300, Escherichia coli ATCC 8739, Acinetobacter baumannii ATCC 19606, Klebsiella aerogenes ATCC 13048, Pseudomonas aeruginosa 9027, and Salmonella enterica ATCC14208. The antibacterial activity was assessed in vitro using the minimum inhibitory concentration (MIC) method. MIC is defined as the lowest concentration of an antimicrobial agent that prevents visible bacterial growth after 24 h of incubation at 37 °C. The ionic liquids were dissolved in Mueller–Hinton broth (MBH) at concentrations ranging from 1 to 256 μg/mL. The broth was added (200 μL) to appropriate wells of a 96-well polystyrene microtitre plate. Then, 10 μL of a nutrient broth starter culture of each bacterial strain was added to achieve final inocula of approximately […] colony forming units (CFU)/mL. A growth control using nutrient broth medium without the ionic liquid was included. The plates were incubated 37 °C for 24 h. Bacterial growth was initially observed visually, with increased turbidity indicating cell growth. […] A color change of resazurine from blue to pink indicated bacterial metabolic activity. All the experiments were performed in triplicate to ensure reproducibility.

Structure (SMILES)	reduction in cell viability (MRSA biofilms; at 32 µg/mL)	MIC (MRSA)	inhibition of cell viability (MRSA biofilms; concentrations ≥ 128 µg/mL)	cell viability (MRSA biofilms; plateau at and above 128 µg/mL)
CCCCCCCCCCOC(=O)C[N+](C)(C)CCO [C10ECholBr]	50%	> 256 µg/mL		
CCCCCCCCCCCCOC(=O)C[N+](C)(C)CCO [C12ECholBr]		64 µg/mL	> 95%	
CCCCCCCCCCCCCCOC(=O)C[N+](C)(C)CCO.[Br-] [C14ECholBr, N-(2-hydroxyethyl)-N,N-dimethyl-2-oxo-2-(tetradecyloxy)ethan-1-aminium bromide]		> 256 µg/mL		around 30%
